Measured values from US8192962B2, “Processes for detecting toxic substances” (Daikin Industries, Ltd., priority 2001, dated 2012).

Tested on: Genes belonging to other category
Assay: DNA chip mRNA expression in yeast, genes belonging to other category (Table 9)
Type: cell-based, Saccharomyces cerevisiae S288C
Procedure: Yeast (Saccharomyces cerevisiae S288C (α SUC2mal mel gap2 CUP1)) were incubated at 25° C. on YPD medium (yeast extract 1%, polypepton 2%, glucose 2%). One of toxic chemical substances was added to the cells at logarithmic growth phase, and the cells were further incubated for two hours. Cells were cultured without any chemical substance in the same condition, and were used as control. Concentrations of the chemical substances were defined to inhibit the growth of the yeast but not lead to death.
After completion of the incubation, the culture was centrifuged to collect the cells. To the cells, sodium acetate buffer (50 mM sodium acetate, 10 mM EDTA, 1% SDS) was added, and the mixture was shaken at 65° C. for five minutes, followed by returning to room temperature, and obtaining the supernatant, of which the procedures were repeated two times. To the supernatant, ½ amount of a solution of phenol/chloroform was added, and the mixture was centrifuged to give a supernatant, which was added with an equal amount of chloroform, and the mixture was centrifuged to give a supernatant. To the supernatant, an equal amount of isopropanol containing 0.3 M sodium acetate was added, and the mixture was allowed to stand at room temperature for 30 minutes, after which the mixture was centrifuged to give a sediment of the whole RNAs. Seventy % ethanol was added to the sediment, and the mixture was again centrifuged to give a sediment, which was then dried and dissolved in water. mRNA was isolated from the whole RNAs as followings. In view of the fact that a poly A chain is attached to the 3′ terminus of mRNA, a polynucleotide having a poly T structure which was immobilized on the surface of latex beads was used to trap the mRNA, and then the mRNA was washed and eluted with spine column (Oligotex-dT30<Super>mRNA Purification Kit, Takara). Reverse transcription of the mRNA was conducted with a reverse transcriptase (Super Script II Reverse Transcriptase; catalogue No. 18064-014, GibcoBRL) using fluorescence-labeled nucleotides to give cDNAs that were introduced with Cy3-dUTP or Cy5-dUTP during the reverse transcription.
The labeled cDNAs were dissolved in TE buffer (10mM Tris-HCl/1 mM EDTA, pH8.0), and the solution was dropped on the DNA chip containing the whole genes of yeast (DNA Chip Research Inc. Japan) so that the cDNAs were hybridized on the DNA chip at 65° C. for over 12 hours. The fluoresces intensity of the DNA chip was read with a scanner, and the ratio relative to the fluorescence intensity resulting from the absence of chemical substance was estimated as the following, which is shown in Tables 1 to 9: […]

CCCCCCCCCCCCOS(=O)(=O)[O-].[Na+] [(18), sodium lauryl sulfate]
The level of expressed mRNA in the presence of chemical substance/The level of expressed mRNA in the absence of chemical substance (yeast gene YMR219W): 0.9 | The level of expressed mRNA in the presence of chemical substance/The level of expressed mRNA in the absence of chemical substance (yeast gene YMR226C): 2.0 | The level of expressed mRNA in the presence of chemical substance/The level of expressed mRNA in the absence of chemical substance (yeast gene YMR275C): 0.7 | The level of expressed mRNA in the presence of chemical substance/The level of expressed mRNA in the absence of chemical substance (yeast gene YMR276W): 0.7 | The level of expressed mRNA in the presence of chemical substance/The level of expressed mRNA in the absence of chemical substance (yeast gene YMR297W): 1.4 | The level of expressed mRNA in the presence of chemical substance/The level of expressed mRNA in the absence of chemical substance (yeast gene YMR314W): 1.6 | The level of expressed mRNA in the presence of chemical substance/The level of expressed mRNA in the absence of chemical substance (yeast gene YNL006W): 1.3 | The level of expressed mRNA in the presence of chemical substance/The level of expressed mRNA in the absence of chemical substance (yeast gene YNL007C): 1.0 | The level of expressed mRNA in the presence of chemical substance/The level of expressed mRNA in the absence of chemical substance (yeast gene YNL036W): 1.9 | The level of expressed mRNA in the presence of chemical substance/The level of expressed mRNA in the absence of chemical substance (yeast gene YNL093W): 3.1 | The level of expressed mRNA in the presence of chemical substance/The level of expressed mRNA in the absence of chemical substance (yeast gene YNL196C): 1.2 | The level of expressed mRNA in the presence of chemical substance/The level of expressed mRNA in the absence of chemical substance (yeast gene YNL333W): 1.1 | The level of expressed mRNA in the presence of chemical substance/The level of expressed mRNA in the absence of chemical substance (yeast gene YNL335W): 1.1 | The level of expressed mRNA in the presence of chemical substance/The level of expressed mRNA in the absence of chemical substance (yeast gene YNR006W): 1.2 | The level of expressed mRNA in the presence of chemical substance/The level of expressed mRNA in the absence of chemical substance (yeast gene YNR010W): 2.3 | The level of expressed mRNA in the presence of chemical substance/The level of expressed mRNA in the absence of chemical substance (yeast gene YNR069C): 0.9 | The level of expressed mRNA in the presence of chemical substance/The level of expressed mRNA in the absence of chemical substance (yeast gene YOL005C): 1.2 | The level of expressed mRNA in the presence of chemical substance/The level of expressed mRNA in the absence of chemical substance (yeast gene YOL013C): 1.4 | The level of expressed mRNA in the presence of chemical substance/The level of expressed mRNA in the absence of chemical substance (yeast gene YOL016C): 3.8 | The level of expressed mRNA in the presence of chemical substance/The level of expressed mRNA in the absence of chemical substance (yeast gene YOL152W): 1.2 | The level of expressed mRNA in the presence of chemical substance/The level of expressed mRNA in the absence of chemical substance (yeast gene YOL164W): 1.3 | The level of expressed mRNA in the presence of chemical substance/The level of expressed mRNA in the absence of chemical substance (yeast gene YOR003W): 1.1 | The level of expressed mRNA in the presence of chemical substance/The level of expressed mRNA in the absence of chemical substance (yeast gene YOR036W): 1.7 | The level of expressed mRNA in the presence of chemical substance/The level of expressed mRNA in the absence of chemical substance (yeast gene YOR117W): 0.9 | The level of expressed mRNA in the presence of chemical substance/The level of expressed mRNA in the absence of chemical substance (yeast gene YOR124C): 1.0 | The level of expressed mRNA in the presence of chemical substance/The level of expressed mRNA in the absence of chemical substance (yeast gene YOR132W): 1.6 | The level of expressed mRNA in the presence of chemical substance/The level of expressed mRNA in the absence of chemical substance (yeast gene YOR133W): 1.2 | The level of expressed mRNA in the presence of chemical substance/The level of expressed mRNA in the absence of chemical substance (yeast gene YOR157C): 1.2 | The level of expressed mRNA in the presence of chemical substance/The level of expressed mRNA in the absence of chemical substance (yeast gene YOR181W): 0.6 | The level of expressed mRNA in the presence of chemical substance/The level of expressed mRNA in the absence of chemical substance (yeast gene YOR185C): 1.1 | The level of expressed mRNA in the presence of chemical substance/The level of expressed mRNA in the absence of chemical substance (yeast gene YOR198C): 1.5 | The level of expressed mRNA in the presence of chemical substance/The level of expressed mRNA in the absence of chemical substance (yeast gene YOR259C): 1.5 | The level of expressed mRNA in the presence of chemical substance/The level of expressed mRNA in the absence of chemical substance (yeast gene YOR261C): 1.9 | The level of expressed mRNA in the presence of chemical substance/The level of expressed mRNA in the absence of chemical substance (yeast gene YOR265W): 1.2 | The level of expressed mRNA in the presence of chemical substance/The level of expressed mRNA in the absence of chemical substance (yeast gene YOR288C): 1.6 | The level of expressed mRNA in the presence of chemical substance/The level of expressed mRNA in the absence of chemical substance (yeast gene YOR355W): 0.9 | The level of expressed mRNA in the presence of chemical substance/The level of expressed mRNA in the absence of chemical substance (yeast gene YOR383C): 1.1 | The level of expressed mRNA in the presence of chemical substance/The level of expressed mRNA in the absence of chemical substance (yeast gene YPL001W): 1.2 | The level of expressed mRNA in the presence of chemical substance/The level of expressed mRNA in the absence of chemical substance (yeast gene YPL089C): 1.1 | The level of expressed mRNA in the presence of chemical substance/The level of expressed mRNA in the absence of chemical substance (yeast gene YPL109C): 1.2 | The level of expressed mRNA in the presence of chemical substance/The level of expressed mRNA in the absence of chemical substance (yeast gene YPL124W): 1.2 | The level of expressed mRNA in the presence of chemical substance/The level of expressed mRNA in the absence of chemical substance (yeast gene YPL149W): 2.9 | The level of expressed mRNA in the presence of chemical substance/The level of expressed mRNA in the absence of chemical substance (yeast gene YPL154C): 2.0 | The level of expressed mRNA in the presence of chemical substance/The level of expressed mRNA in the absence of chemical substance (yeast gene YPL220W): 1.1 | The level of expressed mRNA in the presence of chemical substance/The level of expressed mRNA in the absence of chemical substance (yeast gene YPR066W): 1.2 | The level of expressed mRNA in the presence of chemical substance/The level of expressed mRNA in the absence of chemical substance (yeast gene YPR086W): 1.2 | The level of expressed mRNA in the presence of chemical substance/The level of expressed mRNA in the absence of chemical substance (yeast gene YPR103W): 1.5 | The level of expressed mRNA in the presence of chemical substance/The level of expressed mRNA in the absence of chemical substance (yeast gene YPR108W): 1.3
